No end group written: not given here.
Assays:
bacteria = settings: cited from earlier work
MRSA = test: bacterial clearance in lung lavage fluid of rats with MRSA-induced pneumonia; type: in vivo, rat; settings: HNP-1 0.1 ml of 20 μg/ml (2 μg); penicillin 12 μg/ml; intratracheal spray once daily for 3 days
Experimental: (B) Comparison of the bacterial counts in the different treatment groups. The number of MRSA isolated from lung lavage fluid were counted on the agar-containing culture plates followed by culturing for 36 h at 37°C. […] Data were analyzed using a two-tailed Student's t test and are plotted as the mean ± SD for each condition. n = 3; *, P < 0.05; and **, P < 0.01.
(§1) MRSA and MRPA were isolated from the Affiliated Hospital of Xuzhou Medical University (Jiangsu, China) and obtained from Professor Shengqi Wang (Xuzhou Medical University, Jiangsu, China). Bacterial pneumonia rats were prepared by spraying MRSA suspensions into the lungs via the trachea with a long soft plastic tube, as described in our previous research ([30]). The rats were inoculated using tracheal intubation with 0.2 ml of 10^8 CFU/ml MRSA suspensions. After 8 h, the rats were given medication. […] All of the medicines were sprayed into the rat lungs through the trachea using an intratracheal MicroSprayer Aerosolizer (IA-1B; PennCentury Inc., Wyndmoor, PA, USA) once daily for 3 days without anesthesia.
Preparation of pneumonic model rats and medicine administration.
(§2) clinically isolated bacterial strain MRSA was cultivated in LB medium at 37 °C with
(§3) continuous shaking (200 rpm) overnight. Then, the concentration of MRSA was
(§4) determined by the optical density (OD) at 600 nm based on the turbidity of the cell
suspension. […]

H&E lung pathology = type: in vivo, rat; settings: MRSA-induced pneumonic rats
Experimental: (C) Pathological evaluation via H&E staining in pneumonic model rats. […] Data were analyzed using a two-tailed Student's t test and are plotted as the mean ± SD for each condition. n = 3; *, P < 0.05; and **, P < 0.01.
as §1
Preparation of pneumonic model rats and medicine administration. The
as §2, §3, §4
suspension. Subsequently, the bacterial suspension was diluted with LB medium, and
a final density of 10^8 CFU/mL was obtained for animal testing. Male […]

RecA [1] = test: RecA mRNA by real-time RT-PCR in MRPA; type: cell-based; settings: mRNA normalized to 16s
RecA [2] = settings: real-time RT-PCR, mRNA normalized to 16s
Experimental: (F) Quantification of RecA mRNA in MRSA by real-time RT-PCR.
Analysis of gene expression by real-time RT-PCR. mRNA from RecA and
LexA was measured by real-time PCR (RT-PCR). XPX-1 cells harvested 3 h after
induction and the total RNA was extracted with the TRIzol® Reagent (Thermo
Fisher Scientific, Waltham, MA, USA) according to the manufacturer’s instruction.
Reversed transcription was performed with the ReverTra Ace qPCR RT Kit
(TOYOBO, Osaka, Japan). The primer sequence of RecA and LexA was as follows:
RecA (forward 5’-[sequence]-3’, reverse
5’-[sequence]-3’); LexA (forward
5’-[sequence]-3 ’ , reverse 5 ’
-[sequence]-3’ ). The relative expression level of RecA and
LexA was normalized to 16s by using the 2- CT method(11).

E. coli = test: growth curve of E. coli treated with purified recombinant peptides; type: cell-based; settings: 20 μg/ml; compared with regular growth medium without IPTG induction
Experimental: Data were analyzed using a two-tailed Student's t test and are plotted as the mean ± SD for each condition. *, P < 0.05 and **, P < 0.01.
PreproHNP-1 was purified from E. coli under denaturing conditions ([48]), as described in the Supplementary Materials and Methods. […] The mixture was disrupted using a Soniprep Sonicator (Scientz, Ningbo, China) at the power of 25% for 25 cycles. The resultant TCL was centrifuged at 10,000 g for 25 min. The supernatant was loaded into an Amicon Ultra-0.5 ml centrifugal concentration unit (3 kDa MWCO, Millipore, Burlington, MA, USA) and centrifuged at 5,000 g for 10 min to recover the filtered solution. This step was repeated three times. All filtered solutions were pooled for quality checks and then diluted to a concentration of 20 μg/ml before use in antimicrobial activity assays.
E. coli strains and plasmids. E. coli strain BL21 (DE3), E. coli strain DH5α and vector pET-28a(+) were stored at−80 °C in our laboratory. The DNA sequence of preproHNP-1 and flanked with EcoR I and Xho I was generated from synthetic oligonucleotides according to a reference sequence (NM_004084.3). The products were ligated into the pET-28a(+) vector encoding a fragment with six histidine (His6)
The resulting vectors were transformed into the E. coli DH5α cells and after isolation and purification, they were subjected to the DNA sequence analysis. […]

RecA [3] = system: RecA
Experimental: The inclusion bodies were solubilized in denaturing solution (20 mM Tris, 8 M urea, 20 mM DTT, pH 8.5) at a ratio of 1:20 (grams of inclusion body wet weight: mL of volume) and the suspension was shaken gently for 4 h at room temperature.
After centrifugation at 12,000 ×g for 15 min, the supernatant was diluted directly into refolding buffer (20 mM Tris,1 mM cystine, 3 mM cysteine, 2 M urea, pH 10.0).
After refolding at 4°C overnight, the sample pH was adjusted to 4.5 and the sample was centrifuged at 4,000 ×g for 20 min.
The solubilized protein samples were loaded onto a pre-equilibrated HiTrap Chelating HP (5 mL, GE Healthcare, Chicago, IL, USA) ata flow rate of 10 mL/min inbuffer A (20 mM Tris, 2 M NaCl, pH 7.5). […] The purified preproHNP-1 was quantified with BCA according to standard procedures. […]
imidazole) and analyzed by a 12% Tris-Tricine gel followed by Coomassie brilliant blue G-250 staining. […]
Proteomics analysis. […] After in-gel digestion by trypsin, the samples were analyzed by LC-MS/MS using a homemade column (75 μm internal diameter ×15 cm long) packed with 3 μm C18 reverse phase beads (Michrom Bioresources, Inc., Auburn, CA, USA), a 60 min gradient was performed on an LTQ-Orbitrap Velos mass spectrometer (Thermo Fisher Scientific, San Jose, CA, USA). […]

E. coli strain XPX-1 = test: growth and viable count of E. coli XPX-1 after IPTG-induced expression; type: cell-based; settings: XPX-1, 1 mM IPTG, Luria-Bertani medium, 37°C
Experimental: XPX-1 cells were grown to an approximate optical density (OD600) of 0.4 in 20 ml of Luria−Bertani medium containing kanamycin (50 μg/ml) at 37°C, and then IPTG was added at a final concentration of 1 mM to induce the expression of preproHNP-1.
(B) Growth curves of E. coli strain XPX-1 containing pET-28a(+)-preproHNP-1 with (+IPTG) or without (−IPTG) 1 mM IPTG induction. […] Data were analyzed using a two-tailed Student's t test and plotted as the mean ± SD for each condition. **, P < 0.01.
The induction time points of IPTG are labeled as indicated. […] The induction time points of IPTG are labeled as indicated. (D) Bacterial colony count after IPTG induction. The induction time points are labeled as indicated. The number of viable cells were counted after growing for 16 h on plates containing Luria-Bertani broth media. […] The growth curve of E. coli strain XPX-1 with 1 mM IPTG induction as a positive control and XPX-1 without IPTG induction as a negative control. […] Data were analyzed using a two-tailed Student's t test and are plotted as the mean ± SD for each condition. *, P < 0.05 and **, P < 0.01.
E. coli strains and plasmids.
After verifying the sequence, the vectors were transformed into E. coli BL21 (DE3) competent cells to obtain XPX-1, which was used to express the recombinant protein preproHNP-1. […]

For “HNP-2: antimicrobial peptide cited for filamentation (CYCRIPACIAGERRYGTCIYQGRLWAFCC; ends and bridges not checked; cysteine pairing not given here; UniProt P59665 66-94, looked up)”, the AMP-induced filamentation (bacteria) is listed as “filamentation has also been described”.

For PR-39, the AMP-induced filamentation (bacteria) is given as “filamentation has also been described”.

For “indolicidin (ILPWKWPWWPWRR; ends and bridges not checked; UniProt P33046 131-143, looked up) [antimicrobial peptide cited for filamentation]”, the AMP-induced filamentation (bacteria) is given as “filamentation has also been described”.

With penicillin the bacterial clearance effect (MRSA) was “neither HNP-1 nor penicillin treatment had any effect”, the “exudation, inflammation, hemorrhage (H&E)” value (H&E lung pathology) was “alleviated these symptoms to a certain degree” and the “RecA expression in MRPA” value (RecA [1]) was “increased significantly”. For the same molecule, the “RecA expression in MRSA” value (RecA [2]) was “increased significantly”.

B1: preproHNP-1: full-length precursor of HNP-1 tagged with six histidine residues, cloned into pET-28a(+), expressed in E. coli XPX-1 (protein, UniProt P59665 1-94, looked up)
chain: MRTLAILAAILLVALQAQAEPLQARADEVAAAPEQIAADIPEVVVSLAWDESLAPKHPGSRKNMACYCRIPACIAGERRYGTCIYQGRLWAFCC
modifications: full-length His6 tag
In the case of B1, the “growth curve of E. coli in medium with purified protein” value (E. coli) is reported as “did not differ from those cultured in regular growth medium without IPTG induction”, the “interaction with RecA” value (RecA [3]; anti-RecA co-immunoprecipitation) is reported as “HNP-1, but not full length 6x His-tagged preproHNP-1, interacted with RecA” and the “co-precipitation with RecA over induction time” value (RecA [3]; anti-RecA immunoprecipitation, Western blot with anti-HNP-1) is reported as “decreased with time”. The “OD600 reached after induction” value (E. coli strain XPX-1) was ~1.

B2: HNP-5: antimicrobial peptide cited for filamentation (peptide, UniProt Q01523 20-94, looked up)
Defensin alpha 5: ESLQERADEATTQKQSGEDNQDLAISFAGNGLSALRTSGSQARATCYCRTGRCATRESLSGVCEISGRLYRLCCR
modifications: Defensin-5
notes: antimicrobial peptide cited for filamentation
For B2, the AMP-induced filamentation (bacteria) is given as “filamentation has also been described”.
